Source: patent US11472798B2 (Mission Therapeutics Limited, priority 2014, dated 2022)
pIC50: −log10 of the molar value.

Biological target: T1, UCHL1 (Homo sapiens, UniProt P09936)
T1 construct: made in house; host or cells: HEK293T
T1 sequence (P09936 1-223): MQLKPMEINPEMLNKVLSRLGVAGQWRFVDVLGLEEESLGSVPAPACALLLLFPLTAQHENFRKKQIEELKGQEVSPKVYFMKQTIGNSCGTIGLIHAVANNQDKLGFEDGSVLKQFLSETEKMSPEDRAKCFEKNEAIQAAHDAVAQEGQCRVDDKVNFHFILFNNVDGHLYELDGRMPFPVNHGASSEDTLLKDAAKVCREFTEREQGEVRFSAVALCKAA
Test: UCHL1 biochemical IC50 assay (fluorescence polarisation)
Settings: 30 min enzyme/compound pre-incubation at room temp, read after 2 hr incubation, read-out: Activity range (UCHL1 biochemical IC50 assay)
How it was run: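 Fluorescence polarisation (ex 540/em 590 nm) of 50 nM TAMRA-labelled ubiquitin–peptide isopeptide substrate was read at time zero and after 2 h at room temperature. Compounds (100–0.03 μM final, in duplicate) were given 30 min preincubation with N-FLAG UCHL1 from HEK293T cells in pH 7.5 Tris buffer.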

Row | Structure (SMILES) | pIC50
1 | Cc1nccc(-n2cnc(NC(=O)[C@H]3CCN(C#N)C3)c2)n1 [Example 176, (S)-1-cyano-N-(1-(2-methylpyrimidin-4-yl)-1H-imidazol-4-yl)pyrrolidine-3-carboxamide] | 5.00 to 6.00
2 | N#Cc1ccc(-n2cnc(NC(=O)[C@H]3CCN(C#N)C3)c2)cc1 [Example 177, (S)-1-cyano-N-(1-(4-cyanophenyl)-1H-imidazol-4-yl)pyrrolidine-3-carboxamide] | > 6.00
3 | Cc1nc(NC(=O)[C@H]2CCN(C#N)C2)cn1Cc1ccccc1 [Example 178, (S)—N-(1-benzyl-2-methyl-1H-imidazol-4-yl)-1-cyanopyrrolidine-3-carboxamide] | > 6.00
4 | Cc1noc(C)c1CCn1cnc(NC(=O)[C@H]2CCN(C#N)C2)c1 [Example 179, (S)-1-cyano-N-(1-(2-(3,5-dimethylisoxazol-4-yl)ethyl)-1H-imidazol-4-yl)pyrrolidine-3-carboxamide] | > 6.00
5 | N#Cc1cccc(-n2cnc(NC(=O)[C@H]3CCN(C#N)C3)c2)c1 [Example 180, (S)-1-cyano-N-(1-(3-cyanophenyl)-1H-imidazol-4-yl)pyrrolidine-3-carboxamide] | > 6.00
6 | N#CN1CC[C@H](C(=O)Nc2cn(-c3cccnc3)cn2)C1 [Example 181, (S)-1-cyano-N-(1-(pyridin-3-yl)-1H-imidazol-4-yl)pyrrolidine-3-carboxamide] | > 6.00
7 | N#CN1CC[C@H](C(=O)Nc2cn(-c3ccncc3)cn2)C1 [Example 182, (S)-1-cyano-N-(1-(pyridin-4-yl)-1H-imidazol-4-yl)pyrrolidine-3-carboxamide] | > 6.00
8 | COc1cccc(-n2cnc(NC(=O)[C@H]3CCN(C#N)C3)c2)c1 [Example 183, (S)-1-cyano-N-(1-(3-methoxyphenyl)-1H-imidazol-4-yl)pyrrolidine-3-carboxamide] | > 6.00
9 | N#CN1CC[C@H](C(=O)Nc2cn(C3CCCN(C(=O)c4ccccc4)C3)cn2)C1 (stereo partly drawn) [Example 184, (3S)—N-(1-(1-benzoylpiperidin-3-yl)-1H-imidazol-4-yl)-1-cyanopyrrolidine-3-carboxamide] | > 6.00
10 | N#CN1CC[C@H](C(=O)Nc2cn(C3CCN(C(=O)c4ccccc4)C3)cn2)C1 (stereo partly drawn) [Example 185, (3S)—N-(1-(1-benzoylpyrrolidin-3-yl)-1H-imidazol-4-yl)-1-cyanopyrrolidine-3-carboxamide] | > 6.00
11 | N#CN1CC[C@H](C(=O)Nc2cn(C3CCCN(Cc4ccccc4)C3)cn2)C1 (stereo partly drawn) [Example 186, (3S)—N-(1-(1-benzylpiperidin-3-yl)-1H-imidazol-4-yl)-1-cyanopyrrolidine-3-carboxamide] | > 6.00
12 | CN1CCCC(n2cnc(NC(=O)[C@H]3CCN(C#N)C3)c2)C1 (stereo partly drawn) [Example 187, (3S)-1-cyano-N-(1-(1-methylpiperidin-3-yl)-1H-imidazol-4-yl)pyrrolidine-3-carboxamide] | > 6.00
13 | CN1CCC(n2cnc(NC(=O)[C@H]3CCN(C#N)C3)c2)C1 (stereo partly drawn) [Example 188, (3S)-1-cyano-N-(1-(1-methylpyrrolidin-3-yl)-1H-imidazol-4-yl)pyrrolidine-3-carboxamide] | 5.00 to 6.00
14 | CC(=O)N1CCc2nc(NC(=O)[C@H]3CCN(C#N)C3)sc2C1 [Example 189, (S)—N-(5-acetyl-4,5,6,7-tetrahydrothiazolo[5,4-c]pyridin-2-yl)-1-cyanopyrrolidine-3-carboxamide] | > 6.00
15 | CC(C)C(=O)N1CCc2nc(NC(=O)[C@H]3CCN(C#N)C3)sc2C1 [Example 190, (S)-1-cyano-N-(5-isobutyryl-4,5,6,7-tetrahydrothiazolo[5,4-c]pyridin-2-yl)pyrrolidine-3-carboxamide] | > 6.00
16 | N#CN1CC[C@H](C(=O)Nc2nc3c(s2)CN(C(=O)c2ccccc2)CC3)C1 [Example 191, (S)—N-(5-benzoyl-4,5,6,7-tetrahydrothiazolo[5,4-c]pyridin-2-yl)-1-cyanopyrrolidine-3-carboxamide] | > 6.00
17 | COc1ccccc1C(=O)N1CCc2nc(NC(=O)[C@H]3CCN(C#N)C3)sc2C1 [Example 192, (S)-1-cyano-N-(5-(2-methoxybenzoyl)-4,5,6,7-tetrahydrothiazolo[5,4-c]pyridin-2-yl)pyrrolidine-3-carboxamide] | > 6.00
18 | N#CN1CC[C@H](C(=O)Nc2nc3c(s2)CN(C(=O)c2ccccn2)CC3)C1 [Example 193, (S)-1-cyano-N-(5-picolinoyl-4,5,6,7-tetrahydrothiazolo[5,4-c]pyridin-2-yl)pyrrolidine-3-carboxamide] | > 6.00
19 | Cn1ccc(C(=O)N2CCc3nc(NC(=O)[C@H]4CCN(C#N)C4)sc3C2)n1 [Example 194, (S)-1-cyano-N-(5-(1-methyl-1H-pyrazole-3-carbonyl)-4,5,6,7-tetrahydrothiazolo[5,4-c]pyridin-2-yl)pyrrolidine-3-carboxamide] | > 6.00

Row | Structure (SMILES) | pIC50
20 | Cn1cccc(C(=O)N2CCc3nc(NC(=O)[C@H]4CCN(C#N)C4)sc3C2)c1=O [Example 195, (S)-1-cyano-N-(5-(1-methyl-2-oxo-1,2-dihydropyridine-3-carbonyl)-4,5,6,7-tetrahydrothiazolo[5,4-c]pyridin-2-yl)pyrrolidine-3-carboxamide] | > 6.00
21 | N#CN1CC[C@H](C(=O)Nc2nc3c(s2)CN(C(=O)c2cccnc2)CC3)C1 [Example 196, (S)-1-cyano-N-(5-nicotinoyl-4,5,6,7-tetrahydrothiazolo[5,4-c]pyridin-2-yl)pyrrolidine-3-carboxamide] | > 6.00
22 | CN(C)CC(=O)N1CCc2nc(NC(=O)[C@H]3CCN(C#N)C3)sc2C1 [Example 197, (S)-1-cyano-N-(5-(dimethylglycyl)-4,5,6,7-tetrahydrothiazolo[5,4-c]pyridin-2-yl)pyrrolidine-3-carboxamide] | 5.00 to 6.00
23 | COC(=O)N1CCc2nc(NC(=O)[C@H]3CCN(C#N)C3)sc2C1 [Example 198, methyl (S)-2-(1-cyanopyrrolidine-3-carboxamido)-6,7-dihydrothiazolo[5,4-c]pyridine-5(4H)-carboxylate] | > 6.00
24 | COCCOC(=O)N1CCc2nc(NC(=O)[C@H]3CCN(C#N)C3)sc2C1 [Example 199, 2-methoxyethyl (S)-2-(1-cyanopyrrolidine-3-carboxamido)-6,7-dihydrothiazolo[5,4-c]pyridine-5(4H)-carboxylate] | 5.00 to 6.00
25 | CN1CCc2nc(NC(=O)[C@H]3CCN(C#N)C3)sc2C1 [Example 200, (S)-1-cyano-N-(5-methyl-4,5,6,7-tetrahydrothiazolo[5,4-c]pyridin-2-yl)pyrrolidine-3-carboxamide] | 5.00 to 6.00
26 | N#CN1CC[C@H](C(=O)Nc2nc3c(s2)CN(Cc2ccccc2)CC3)C1 [Example 201, (S)—N-(5-benzyl-4,5,6,7-tetrahydrothiazolo[5,4-c]pyridin-2-yl)-1-cyanopyrrolidine-3-carboxamide] | 5.00 to 6.00
27 | CS(=O)(=O)N1CCc2nc(NC(=O)[C@H]3CCN(C#N)C3)sc2C1 [Example 202, (S)-1-cyano-N-(5-(methylsulfonyl)-4,5,6,7-tetrahydrothiazolo[5,4-c]pyridin-2-yl)pyrrolidine-3-carboxamide] | > 6.00
28 | CC(C)S(=O)(=O)N1CCc2nc(NC(=O)[C@H]3CCN(C#N)C3)sc2C1 [Example 203, (S)-1-cyano-N-(5-(isopropylsulfonyl)-4,5,6,7-tetrahydrothiazolo[5,4-c]pyridin-2-yl)pyrrolidine-3-carboxamide] | > 6.00
29 | N#CN1CC[C@H](C(=O)Nc2nc3c(s2)CN(S(=O)(=O)c2ccccc2)CC3)C1 [Example 204, (S)-1-cyano-N-(5-(phenylsulfonyl)-4,5,6,7-tetrahydrothiazolo[5,4-c]pyridin-2-yl)pyrrolidine-3-carboxamide] | > 6.00
30 | C#Cc1ccc(-c2cnc(NC(=O)[C@H]3CCN(C#N)C3)s2)cc1 [Example 205, (S)-1-cyano-N-(5-(4-ethynylphenyl)thiazol-2-yl)pyrrolidine-3-carboxamide] | > 6.00
31 | C#Cc1cccc(-c2cnc(NC(=O)[C@H]3CCN(C#N)C3)s2)c1 [Example 206, (S)-1-cyano-N-(5-(3-ethynylphenyl)thiazol-2-yl)pyrrolidine-3-carboxamide] | > 6.00
32 | CC(NS(=O)(=O)c1ccc(NC(=O)[C@H]2CCN(C#N)C2)nc1)c1ccccc1 (stereo partly drawn) [Example 207, (3S)-1-cyano-N-(5-(N-(1-phenylethyl)sulfamoyl)pyridin-2-yl)pyrrolidine-3-carboxamide] | 5.00 to 6.00
33 | CC(c1ccccc1)N(C)S(=O)(=O)c1ccc(NC(=O)[C@H]2CCN(C#N)C2)nc1 (stereo partly drawn) [Example 208, (3S)-1-cyano-N-(5-(N-methyl-N-(1-phenylethyl)sulfamoyl)pyridin-2-yl)pyrrolidine-3-carboxamide] | > 6.00
34 | Cc1nc(-c2ccc3nc(NC(=O)[C@H]4CCN(C#N)C4)cn3c2)no1 [Example 209, (S)-1-cyano-N-(6-(5-methyl-1,2,4-oxadiazol-3-yl)imidazo[1,2-a]pyridin-2-yl)pyrrolidine-3-carboxamide] | > 6.00
35 | Cn1cc(-c2ccnc(NC(=O)[C@H]3CCN(C#N)C3)c2)cn1 [Example 211, (S)-1-cyano-N-(4-(1-methyl-1H-pyrazol-4-yl)pyridin-2-yl)pyrrolidine-3-carboxamide] | 5.00 to 6.00
36 | CN(C)S(=O)(=O)N1CCc2nc(NC(=O)[C@H]3CCN(C#N)C3)sc2C1 [Example 212, (S)-1-cyano-N-(5-(N,N-dimethylsulfamoyl)-4,5,6,7-tetrahydrothiazolo[5,4-c]pyridin-2-yl)pyrrolidine-3-carboxamide] | > 6.00
37 | N#CN1CC[C@H](C(=O)Nc2ncc(-c3ccnnc3)s2)C1 [Example 213, (S)-1-cyano-N-(5-(pyridazin-4-yl)thiazol-2-yl)pyrrolidine-3-carboxamide] | > 6.00
